Measured values reported in patent publication US20250357519A1, “APPLICATIONS OF O2-INSENSITIVE FORMATE DEHYDROGENASE” (UNIVERSITY OF MARYLAND, BALTIMORE, priority 2022, published 2025).

Tests used:
[1] = target: T1, Desulfovibrio vulgaris Hildenborough (DvH) FDH2, recombinant Strep-tag II-tagged (FDH2^Rec), large subunit DVU2482 SEQ ID NO: 31, small subunit DVU2481 SEQ ID N (Nitratidesulfovibrio vulgaris, UniProt Q728X0); experiment: Inhibition of PES/DCPIP reduction by DvH-FDH2; assay type: biochemical; design: some rows (FDH2^WT, da Silva et al.) are the native enzyme; details: anaerobic and aerobic
T1 sequence (Q728X0 36-1003): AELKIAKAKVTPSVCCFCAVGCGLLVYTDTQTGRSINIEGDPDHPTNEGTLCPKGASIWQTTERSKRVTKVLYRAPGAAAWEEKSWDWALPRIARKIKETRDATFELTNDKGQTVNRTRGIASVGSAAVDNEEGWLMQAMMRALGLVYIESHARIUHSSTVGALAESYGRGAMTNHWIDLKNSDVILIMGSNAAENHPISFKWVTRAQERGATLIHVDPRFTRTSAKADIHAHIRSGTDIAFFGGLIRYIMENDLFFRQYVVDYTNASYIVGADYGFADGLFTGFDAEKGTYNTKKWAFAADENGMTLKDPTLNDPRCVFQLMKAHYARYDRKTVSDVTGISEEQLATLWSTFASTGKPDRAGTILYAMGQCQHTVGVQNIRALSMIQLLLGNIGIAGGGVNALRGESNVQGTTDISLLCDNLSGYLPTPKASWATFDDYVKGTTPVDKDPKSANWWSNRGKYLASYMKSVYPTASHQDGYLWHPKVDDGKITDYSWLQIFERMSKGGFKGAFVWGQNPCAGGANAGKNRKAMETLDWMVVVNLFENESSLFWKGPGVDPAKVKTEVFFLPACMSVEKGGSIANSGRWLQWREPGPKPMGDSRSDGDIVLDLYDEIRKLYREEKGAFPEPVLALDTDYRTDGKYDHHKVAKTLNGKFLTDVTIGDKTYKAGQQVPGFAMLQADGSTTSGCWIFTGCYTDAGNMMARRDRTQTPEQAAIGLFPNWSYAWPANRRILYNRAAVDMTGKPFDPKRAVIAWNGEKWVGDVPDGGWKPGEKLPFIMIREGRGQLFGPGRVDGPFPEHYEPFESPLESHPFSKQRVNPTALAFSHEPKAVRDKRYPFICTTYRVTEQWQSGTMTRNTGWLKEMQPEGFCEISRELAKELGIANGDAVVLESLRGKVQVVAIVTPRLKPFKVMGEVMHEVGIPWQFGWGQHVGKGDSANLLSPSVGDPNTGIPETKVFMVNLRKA
T1 sequence (Q728X1 1-260 partner): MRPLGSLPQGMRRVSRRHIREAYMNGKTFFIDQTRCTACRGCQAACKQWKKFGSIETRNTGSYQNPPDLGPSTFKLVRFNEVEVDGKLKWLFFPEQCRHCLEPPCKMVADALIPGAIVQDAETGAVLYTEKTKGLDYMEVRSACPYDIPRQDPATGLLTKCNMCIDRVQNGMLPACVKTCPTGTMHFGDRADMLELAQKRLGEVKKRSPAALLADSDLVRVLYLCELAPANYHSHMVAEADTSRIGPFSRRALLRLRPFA
Method: FIG. 22. Effect of sodium azide on PES/DCPIP reduction by DvH-FDH2. Panel (A) illustrates raw anaerobic kinetics, Panel (B) illustrates data from Panel (A) converted to reduced DCPIP concentration, Panel (C) illustrates 4-parameter sigmoidal fit of Panel (B), Panel (D) illustrates aerobic raw traces, Panel (E) illustrates data from Panel (D) converted to reduced DCPIP concentration, and Panel (F) illustrates a 4-parameter sigmoidal fit of […]. IC50 values were in the range of 0.8 mM.
FIG. 23. Effect of sodium nitrate on PES/DCPTP reduction by DvH-FDH2. Panel (A) illustrates raw anaerobic kinetics, Panel (B) illustrates data from Panel (A) converted to reduced DCPTP concentration, Panel (C) illustrates raw aerobic kinetics, and Panel (D) illustrates data from Panel (C) converted to reduced DCPTP concentration.
To test this hypothesis, activity assays were independently pursued with the PES/DCPIP pair. As has been observed for other dehydrogenases^91, PES served as an efficient electron acceptor for DvH-FDH2 (FIG. 19(A)). […]
In this dye-linked assay, PES (Em,7=+65 mV) serves as the primary electron acceptor. […] Assays were performed using a UV-2600i spectrophotometer (Shimadzu Life Sciences) equipped with T2 Peltier/stirrer accessory (Quantum) and monitored at 600 nm. […]

DvH-FDH2 = DvH-FDH2 (Nitratidesulfovibrio vulgaris (Desulfovibrio vulgaris Hildenborough), UniProt Q728X0); assay type: biochemical

O=[N+]([O-])[O-].[Na+] [nitrate, sodium nitrate]
inhibition relative to azide [1]: far less effective | Inhibition of DvH-FDH2 compared with azide (DvH-FDH2): far less effective
